Legend:
[1] = test system: skin; test: skin hydration (corneometer) in volunteers; type: in vivo, human; conditions: formulation with 0.1625% arjunolic acid, twice daily, 4 weeks, left inner forearm, figure 2
Source text: (§1) For the study 30 volunteers were recruited. 15 volunteers got the test formulation with 0.1625% arjunolic acid, 15 got the formulation without active ingredient (carrier). They applied the test formulation twice daily over a period of 4 weeks on the left inner forearm. A Tewameter (TM 300, Courage & Khazaka, Cologne, D) was used to determine the transepidermal water loss. A corneometer (CM825, Courage & Khazaka, Cologne, D) was used to determine the skin hydration. The measurements were performed before the application started and after 4 weeks. Before the measurement started the panelists had to climatize in a climatic room at 21-22°C and 50% relative humidity for at least 15 min.

[2] = test system: TSP1; test: TSP1 expression in reconstructed human epidermis (RHE) skin models, real time RT-PCR; type: cell-based; conditions: 50 µl aqueous formulation containing 0.325% arjunolic acid, 48 hours, versus formulation without arjunolic acid, read-out: increased expression of TSP1
Description: Since thrombospondin 1 (TSP1) has been described by Murphy-Ullrich et al. 2000, Cytokine & Growth Factor Reviews; 11: 59-69 as one of the most important endogenous activators of TGF-β1 we investigated the effect of arjunolic acid on TSP1 expression in reconstructed human epidermis (RHE) skin models.
For this purpose RHE skin models (SkinEthic laboratories, Nice, France) were incubated with 50 µl of the test formulation (aqueous arjunolic acid formulation containing 0.325% arjunolic acid, 3% Glyceryl Stearate, 3% Ceteareth-20, 1% Stearyl Alcohol, 4% Cetearyl Ethylhexanoate/Isopropylmyristate and 4% Caprylic/Capric Triglyceride) in a humidified atmosphere containing 5 % CO2 for 48 hours. Then cell culture supernatants were removed and skin models were immediately transferred into a 2 ml reaction tube containing 1,5 ml RNAlater RNA stabilisation reagent (#76104, Qiagen, Hilden, Germany) to avoid RNA degradation. Controls received formulation without arjunolic acid only. […] Real time RT-PCR analysis was performed to quantify expression of TSP1. […] Results were analysed with SDS 2.0 software (Applied Biosystems). Relative quantification was performed according to the delta-delta-Ct method with 18s ribosomal RNA (18s rRNA) used as a house keeping gene.

[3] = test system: skin; test: transepidermal water loss (Tewameter) in volunteers; type: in vivo, human; conditions: formulation with 0.1625% arjunolic acid versus carrier, twice daily, 4 weeks, left inner forearm, figure 1
Source text: as §1

[4] = test system: human skin fibroblast cells; conditions: incubation of human skin fibroblast cells with 6.25 mg/mL arjunolic acid; cited from earlier work
[5] = solubility of arjunolic acid in water, cosmetic oils and solvents; type: physicochemical
Source text: Skin is subject to deterioration through the passage of time (chronological aging, dermatological disorders, hormonal changes, environmental abuse (wind, air conditioning, central heating, pollution) all of which may be accelerated by exposure of skin to radiation from the sun (photoaging). Chronological aging and photoaging is summarized under the term aging. Consumers are increasingly seeking cosmetic products which treat or delay the visible signs of aging skin such as wrinkles, lines, loss of elasticity, uneven skin tone, dry skin, sagging, hyperpigmentation and age spots. There continues to be a need, however, for alternative effective cosmetic compositions for topical application to skin for treating and delaying skin aging. […] This effect be boosted by combinations with at least one additional active selected from the group of anti-aging, anti-inflammatory, anti-cellulite, moisturization, skin barrier improving, anti-wrinkle, firming, soothing or calming active ingredients. As described above arjunolic acid is poorly soluble in common solvents: It is insoluble in water and poorly soluble in cosmetic oils like mineral oil, isopropyl myristate or other ester oils or cosmetic solvents like propylene glycol or glycerol. The solubility of arjunolic acid in propylene glycol is only 0.6%; in ispropylmyristate, mineral oil and glycerin less than 0.1% arjunolic acid are soluble. This leads to the problem that it is very difficult to keep a sufficient amount of arjunolic acid solubilized in the cosmetic preparation without crystallization.

[6] = test system: skin; test: skin elasticity (Cutometer) in volunteers; type: in vivo, human; conditions: formulation containing 0.1625% arjunolic acid, twice daily, 8 weeks, left inner forearm
Description: Method: For this study 30 volunteers were recruited. 15 volunteers got the test formulation with 0.1625% arjunolic acid, 15 got the formulation without active ingredient (carrier). They applied the test formulation twice daily over a period of 8 weeks on the left inner forearm.
The skin elasticity was assessed with a Cutometer MPA 580 (Courage & Khazaka, Cologne, D) which measures the vertical deformation of the skin when sucked into the loop of a measuring probe and reversed into its original condition. From the stretching/release cycles different parameters describing the skin elasticity were calculated. The parameter R1 describes the remaining deformation after the first stretching cycle while R5 is known as netto elasticity (R5 = UR/UE).
For the stretching a vacuum of 450 mbar was kept for 5s, the relaxing time was also 5s. The measurement was carried out after a climatization of the volunteers at room temperature and 50 % relative humidity for at least 15 min. before the treatment started and after 8 weeks of application.

[7] = test system: skin; conditions: moisturizer containing arjunolic acid, volunteers; cited from earlier work
[8] = test system: skin; test: skin scaliness (Visioscan camera) in volunteers; type: in vivo, human; conditions: 0.25% arjunolic acid in the formulation as printed, versus carrier, twice daily, 4 weeks, left inner forearm, figure 5
Description: For this study 30 volunteers were recruited. […] They applied the test formulation twice daily over a period of 4 weeks on the left inner forearm. The measurement was carried out after an acclimatization of the volunteers at room temperature and 50 % relative humidity before the treatment started and after 4 weeks of application.
For the evaluation of the skin scaliness a special camera (Visioscan VC 98, Courage & Khazaka, Cologne, D) was used. […] The picture taken with this camera is converted into a digital signal with 256 grey levels. Via the grey level distribution the software calculates the skin scaliness.

In the case of CC1(C)CC[C@]2(C(=O)O)CC[C@]3(C)C(=CC[C@@H]4[C@@]5(C)C[C@@H](O)[C@H](O)[C@@](C)(CO)[C@@H]5CC[C@]43C)[C@@H]2C1 [arjunolic acid, 2a,3b,23-trihydroxyolean-12-en-28-oic acid], the skin hydration [1] is reported as “increases skin hydration significantly”, the fold induction at 0.325 % [2] is reported as ~10 and the “transepidermal water loss (TEWL)” value [3] is reported as “improves skin barrier”. The collagen formation [4] was 30.9 ng/mg, the solubility in glycerin ([5]; glycerin) was “less than 0.1%” and the solubility in ispropylmyristate ([5]; ispropylmyristate) was “less than 0.1%”. For the same compound, the “solubility in mineral oil” value ([5]; mineral oil) was “less than 0.1%”, the “solubility in propylene glycol” value ([5]; propylene glycol) was 0.6% and the solubility in water ([5]; water) was “insoluble”. The “R1, the remaining deformation after the first stretching cycle” value ([6]; figure 3) was “improved significantly”, the “R5, the netto elasticity” value ([6]; figure 4) was “improved significantly” and the anti-wrinkle effects [7] was “good anti-wrinkle effects”. The “reduction of the scaliness” value [8] was “improved further”.

— patent EP2065031A1, “Skin treatment composition” (Evonik Goldschmidt GmbH, priority 2007, dated 2009)
